From ChEMBL document CHEMBL4346715, “Antibacterial activity study of 1,2,4-triazole derivatives” (Eur J Med Chem, 2019) come the findings set out here.

In brackets after ≈: the same amount, converted by molar mass.

Experiment [1] relates to Staphylococcus aureus. In words: Antibacterial activity against Staphylococcus aureus. Format: functional.
The next experiment has as its system Streptococcus pneumoniae. In words: Antibacterial activity against Streptococcus pneumoniae. In kind it is functional.
Experiment [2] concerns Escherichia coli. In words: Antibacterial activity against Escherichia coli. In kind it is functional.
The subject of a further experiment is Clostridium tetani. In words: Antibacterial activity against Clostridium tetani. In kind it is functional.
In the next experiment the test system is Bacillus subtilis. In words: Antibacterial activity against Bacillus subtilis. Format: functional.
Experiment [3] has as its system Pseudomonas aeruginosa. In words: Antibacterial activity against Pseudomonas aeruginosa. Format: functional.
For another experiment, the system named is Aspergillus niger. In words: Antifungal activity against Aspergillus niger. In kind it is functional.
Another experiment deals with Candida albicans. In words: Antifungal activity against Candida albicans. Format: functional.
Experiment [4] concerns Pseudomonas aeruginosa. In words: Antibacterial activity against Pseudomonas aeruginosa ATCC 27853 after 24 hrs by broth microdilution method. To be noted: ATCC 27853, 24 h. In kind it is functional. (Broth dilution looks for growth in wells or tubes with falling amounts of substance.)
A further experiment deals with Salmonella typhimurium. In words: Antibacterial activity against Salmonella typhimurium ATCC 14028 after 24 hrs by broth microdilution method. Format: functional, Salmonella enterica subsp. enterica serovar Typhimurium. To be noted: Salmonella enterica, ATCC 14028, 24 h.
Experiment [5] deals with Staphylococcus aureus. In words: Antibacterial activity against Staphylococcus aureus ATCC 49444 after 24 hrs by broth microdilution method. Format: functional. As to conditions: ATCC 49444, 24 h.
The next experiment has as its system Listeria monocytogenes. In words: Antibacterial activity against Listeria monocytogenes ATCC 35152 after 24 hrs by broth microdilution method. Format: functional. To be noted: ATCC 35152, 24 h.
The subject of experiment [6] is Escherichia coli. In words: Antibacterial activity against Escherichia coli after 24 hrs by broth microdilution method. In kind it is functional.
Experiment [7] deals with Escherichia coli. In words: Antibacterial activity against Escherichia coli incubated for 18 hrs post 30 mins pre-diffusion by disk diffusion method. Format: functional.
For experiment [8], the system named is Staphylococcus aureus. In words: Antibacterial activity against Staphylococcus aureus incubated for 18 hrs post 30 mins pre-diffusion by disk diffusion method. Format: functional. In general terms: In agar diffusion tests the substance spreads into inoculated agar from a disc or well.

As usually defined, the MIC is the smallest concentration in the dilution series that meets the test's criterion for growth inhibition. A lower MIC goes with greater potency. As to `Cc1ccc(-c2cc(-c3c(C)nn(-c4ccccc4)c3-n3cncn3)n3c(n2)nc2ccccc23)cc1`, the MIC in the experiment on Staphylococcus aureus [1], with Streptococcus pneumoniae, against Escherichia coli [2], in the experiment on Clostridium tetani and against Bacillus subtilis was 62.5 to 250 µg/mL (≈ 130 to 518 µM) throughout.

As for `C/C=N/n1c(S)nnc1-c1ccncc1`, the MIC with Pseudomonas aeruginosa [3], in the experiment with Aspergillus niger, against Staphylococcus aureus [1], in the experiment with Escherichia coli [2], against Bacillus subtilis and against Candida albicans was 10.2 to 162 µg/mL (≈ 46.5 to 741 µM) each time.

For `Cc1nc(-c2ccccc2)sc1-c1nnc(S)n1/N=C/c1c(Cl)cccc1Cl`, the MIC against Pseudomonas aeruginosa [4], against Salmonella typhimurium, with Staphylococcus aureus [5], against Listeria monocytogenes and against Escherichia coli [6] was 1.95 to 62.5 µg/mL (≈ 4.37 to 140 µM) throughout.

Take `CSc1nc(Cl)cc(Sc2nnc(-c3cc(F)cc(F)c3)[nH]2)n1`: the MIC with Escherichia coli [7] and against Staphylococcus aureus [8] was 1.6 to 250 µg/mL (≈ 4.3 to 672 µM) throughout.

With `COc1ccc(/C=N/n2c(S)nnc2-c2ccncc2)cc1`, the minimum inhibitory concentration (MIC) against Pseudomonas aeruginosa [3], against Aspergillus niger, in the experiment with Staphylococcus aureus [1], against Escherichia coli [2], in the experiment on Bacillus subtilis and in the experiment on Candida albicans was 10.2 to 162 µg/mL (≈ 32.8 to 522 µM) each time.

On to `COC1=CC(=O)C[C@@H](C)[C@]12Oc1c(Cl)c(OC)cc(OC)c1C2=O` [GRISEOFULVIN], for which the MIC in the experiment on Staphylococcus aureus [1], in the experiment on Streptococcus pneumoniae, with Escherichia coli [2], against Clostridium tetani and in the experiment on Bacillus subtilis was 100 to 500 µg/mL (≈ 283 to 1420 µM) in each case.

Take `Sc1nnc(-c2ccncc2)n1/N=C/c1ccccc1`: the MIC against Pseudomonas aeruginosa [3] fell in the range of 14.1 to 17.2 µg/mL (≈ 50.1 to 61.1 µM); in the experiment on Aspergillus niger, 10.2 to 162 µg/mL (≈ 36.3 to 578 µM); against Staphylococcus aureus [1] it was 14.1 to 17.2 µg/mL (≈ 50.1 to 61.1 µM); in the experiment on Escherichia coli [2] it was 10.2 to 162 µg/mL (≈ 36.3 to 578 µM); against Bacillus subtilis it was 10.2 to 162 µg/mL (≈ 36.3 to 578 µM); in the experiment on Candida albicans, 10.2 to 162 µg/mL (≈ 36.3 to 578 µM).

Consider `FC(F)(F)c1ccc(-c2nnc(Sc3cc(Cl)nc(Sc4ccccc4)n3)[nH]2)cc1`, for which the MIC with Escherichia coli [7] and against Staphylococcus aureus [8] was 1.6 to 250 µg/mL (≈ 3.43 to 537 µM) throughout.

As to `Cc1cc(C)cc(-c2nnc(Sc3cc(Cl)ncn3)[nH]2)c1`, the MIC with Escherichia coli [7] and in the experiment with Staphylococcus aureus [8] was 1.6 to 250 µg/mL (≈ 5.03 to 787 µM) in each case.

With `Cc1ccc(/C=N/n2c(S)nnc2-c2ccncc2)cc1`, the minimal inhibitory concentration (MIC) with Pseudomonas aeruginosa [3], against Aspergillus niger, in the experiment on Staphylococcus aureus [1], against Escherichia coli [2], against Bacillus subtilis and in the experiment with Candida albicans was 10.2 to 162 µg/mL (≈ 34.5 to 550 µM) throughout.

As for `COc1cc(/C=N/n2c(S)nnc2-c2ccncc2)cc(OC)c1OC`, the MIC in the experiment with Pseudomonas aeruginosa [3], with Aspergillus niger, in the experiment on Staphylococcus aureus [1], against Escherichia coli [2], in the experiment on Bacillus subtilis and against Candida albicans was 10.2 to 162 µg/mL (≈ 27.5 to 438 µM) each time.

Regarding `CSc1nccc(Sc2nnc(-c3cc(C(F)(F)F)cc(C(F)(F)F)c3)[nH]2)n1`, the minimum inhibitory concentration (MIC) in the experiment with Escherichia coli [7] and with Staphylococcus aureus [8] was 1.6 to 250 µg/mL (≈ 3.66 to 572 µM) throughout.

On to `CCCCCSc1nc(Cl)cc(Sc2nnc(-c3cc(C(F)(F)F)cc(C(F)(F)F)c3)[nH]2)n1`, for which the MIC with Escherichia coli [7] and in the experiment on Staphylococcus aureus [8] was 1.6 to 250 µg/mL (≈ 3.03 to 474 µM) in each case.

With `O=[N+]([O-])c1ccc(/C=N/n2c(S)nnc2-c2ccncc2)cc1`, the MIC in the experiment on Pseudomonas aeruginosa [3], against Aspergillus niger, with Staphylococcus aureus [1], against Escherichia coli [2], against Bacillus subtilis and in the experiment on Candida albicans was 10.2 to 162 µg/mL (≈ 31.3 to 498 µM) in each case.

As to `CSc1nccc(Sc2nnc(-c3cc(C)cc(C)c3)[nH]2)n1`, the minimal inhibitory concentration (MIC) against Escherichia coli [7] and against Staphylococcus aureus [8] was 1.6 to 250 µg/mL (≈ 4.86 to 759 µM) in each case.

On to `Cc1nn(-c2ccccc2)c(-n2cncn2)c1-c1cc(-c2ccc(-c3cccs3)cc2)nc2nc3ccccc3n12`, for which the MIC in the experiment with Staphylococcus aureus [1], with Streptococcus pneumoniae, in the experiment on Escherichia coli [2], in the experiment on Clostridium tetani and with Bacillus subtilis was 62.5 to 250 µg/mL (≈ 114 to 454 µM) in each case.

For `CSc1nc(Cl)cc(Sc2nnc(-c3ccc(C(F)(F)F)cc3)[nH]2)n1`, the MIC against Escherichia coli [7] and with Staphylococcus aureus [8] was 1.6 to 250 µg/mL (≈ 3.96 to 619 µM) throughout.

Consider `FC(F)(F)c1cccc(-c2nnc(Sc3cc(Cl)nc(Sc4ccccc4)n3)[nH]2)c1`, for which the MIC against Escherichia coli [7] and against Staphylococcus aureus [8] was 1.6 to 250 µg/mL (≈ 3.43 to 537 µM) throughout.

In the case of `COc1cc(-c2nnc(Sc3cc(Cl)nc(Sc4ccccc4)n3)[nH]2)ccc1O`, the MIC in the experiment with Escherichia coli [7] and against Staphylococcus aureus [8] was 1.6 to 250 µg/mL (≈ 3.6 to 563 µM) throughout.

For `CSc1nc(Cl)cc(Sc2nnc(-c3cc(C)cc(C)c3)[nH]2)n1`, the MIC in the experiment on Escherichia coli [7] and in the experiment on Staphylococcus aureus [8] was 1.6 to 250 µg/mL (≈ 4.4 to 687 µM) each time.

With `Cc1cc(C)cc(-c2nnc(Sc3cc(Cl)nc(Sc4ccccc4)n3)[nH]2)c1`, the MIC in the experiment on Escherichia coli [7] and against Staphylococcus aureus [8] was 1.6 to 250 µg/mL (≈ 3.76 to 587 µM) throughout.

For `FC(F)(F)c1cc(-c2nnc(Sc3cc(Cl)ncn3)[nH]2)cc(C(F)(F)F)c1`, the MIC against Escherichia coli [7] and against Staphylococcus aureus [8] was 1.6 to 250 µg/mL (≈ 3.76 to 587 µM) in each case.
